The target in this test is T1, hmGlu5 (Homo sapiens, UniProt P41594).
T1 construct: expressed in transfected cells; host or cells: HEK 293A
The test can be described thus: mGlu5 Ca2+ flux assay in HEK 293A cells (negative allosteric modulation of glutamate EC80 response). The format is cell-based. Particulars: for remaining activity at 30 µM: HEK293-A, read-out: hmGlu5 NAM Emin (%); for IC50: HEK 293A cells, Ca2+ flux, glutamate EC80, >10,000 = decrease without plateau, read-out: hmGlu5 NAM IC50. The method, then:
HEK 293A cells stably expressing either rat or human mGlu5 were plated in black-walled, clear-bottomed, poly-D-lysine coated 384-well plates in 20 μL of assay medium (DMEM containing 10% dialyzed FBS, 20 mM HEPES, 100 units/mL penicillin/streptomycin plus 250 ng/mL Fungizone, and 1 mM sodium pyruvate) at a density of 20K cells/well. The cells were grown overnight at 37° C. in the presence of 5% CO2. The next day, medium was removed and the cells incubated with 20 μL of 2.3 μM Fluo-4, AM prepared as a 2.3 mM stock in DMSO and mixed in a 1:1 ratio with 10% (w/v) pluronic acid F-127 and diluted in assay buffer (Hank's balanced salt solution, 20 mM HEPES, and 2.5 mM probenecid) for 45 minutes at 37° C. Dye was removed, 20 μL of assay buffer was added, and the plate was incubated for 5 minutes at room temperature.
Ca^2+ flux was measured using the Functional Drug Screening System (FDSS7000, Hamamatsu, Japan). After establishment of a fluorescence baseline for about 3 seconds, the compounds of the present invention were added to the cells, and the response in cells was measured. 2.3 minutes later an EC20 concentration of the mGlu5 receptor agonist glutamate was added to the cells, and the response of the cells was measured for 1.9 minutes; an EC80 concentration of agonist was added and readings taken for an additional 1.7 minutes. All test compounds were dissolved and diluted to a concentration of 10 mM in 100% DMSO. Compounds were then serially diluted 1:3 in DMSO into 10 point concentration response curves, transferred to daughter plates, and further diluted into assay buffer to a 2× stock. Calcium fluorescence measures were recorded as fold over basal fluorescence; raw data was then normalized to the maximal response to glutamate. Antagonism of the agonist response of the mGlu5 receptor in the present invention was observed as a decrease in response to nearly maximal concentrations of glutamate in the presence of compound compared to the response to glutamate in the absence of compound.
The raw data file containing all time points was used as the data source in the analysis template. This was saved by the FDSS as a tab-delimited text file. Data were normalized using a static ratio function (F/F0) for each measurement of the total 360 values per well divided by each well's initial value. Data were then reduced to peak amplitudes (Max−Initial Min) using a time range that starts approximately 3 seconds prior to the glutamate EC20/EC80 addition and continues for approximately 90-120 seconds. This is sufficient time to capture the peak amplitude of the cellular calcium response. Individual amplitudes were expressed as % EMax by multiplying each amplitude by 100 and then dividing the product by the mean of the amplitudes derived from the glutamate ECMax-treated wells. IC50 values for test compounds were generated by fitting the normalized values versus the log of the test compound concentration (in mol/L) using a 4 parameter logistic equation where none of the parameters were fixed. Each of the three values collected at each concentration of test compound were weighted evenly.
For NAMs with a CRC that plateaus above 10% Glu Max, the IC50 values are reported, the compound is designated a “partial NAM” and the % Glu Max is reported. […] Compounds without measurable activity are designated as “>30,000 nM” since the top concentration of compound tested in the assay is 30 μM. […]

As a reminder, the IC50 is the concentration needed to halve the response being measured.

Like-named read-outs stand apart in the source and are kept apart here. A value given as a limit tells only on which side of the number the result lay.

T1 sequence (P41594 21-1212): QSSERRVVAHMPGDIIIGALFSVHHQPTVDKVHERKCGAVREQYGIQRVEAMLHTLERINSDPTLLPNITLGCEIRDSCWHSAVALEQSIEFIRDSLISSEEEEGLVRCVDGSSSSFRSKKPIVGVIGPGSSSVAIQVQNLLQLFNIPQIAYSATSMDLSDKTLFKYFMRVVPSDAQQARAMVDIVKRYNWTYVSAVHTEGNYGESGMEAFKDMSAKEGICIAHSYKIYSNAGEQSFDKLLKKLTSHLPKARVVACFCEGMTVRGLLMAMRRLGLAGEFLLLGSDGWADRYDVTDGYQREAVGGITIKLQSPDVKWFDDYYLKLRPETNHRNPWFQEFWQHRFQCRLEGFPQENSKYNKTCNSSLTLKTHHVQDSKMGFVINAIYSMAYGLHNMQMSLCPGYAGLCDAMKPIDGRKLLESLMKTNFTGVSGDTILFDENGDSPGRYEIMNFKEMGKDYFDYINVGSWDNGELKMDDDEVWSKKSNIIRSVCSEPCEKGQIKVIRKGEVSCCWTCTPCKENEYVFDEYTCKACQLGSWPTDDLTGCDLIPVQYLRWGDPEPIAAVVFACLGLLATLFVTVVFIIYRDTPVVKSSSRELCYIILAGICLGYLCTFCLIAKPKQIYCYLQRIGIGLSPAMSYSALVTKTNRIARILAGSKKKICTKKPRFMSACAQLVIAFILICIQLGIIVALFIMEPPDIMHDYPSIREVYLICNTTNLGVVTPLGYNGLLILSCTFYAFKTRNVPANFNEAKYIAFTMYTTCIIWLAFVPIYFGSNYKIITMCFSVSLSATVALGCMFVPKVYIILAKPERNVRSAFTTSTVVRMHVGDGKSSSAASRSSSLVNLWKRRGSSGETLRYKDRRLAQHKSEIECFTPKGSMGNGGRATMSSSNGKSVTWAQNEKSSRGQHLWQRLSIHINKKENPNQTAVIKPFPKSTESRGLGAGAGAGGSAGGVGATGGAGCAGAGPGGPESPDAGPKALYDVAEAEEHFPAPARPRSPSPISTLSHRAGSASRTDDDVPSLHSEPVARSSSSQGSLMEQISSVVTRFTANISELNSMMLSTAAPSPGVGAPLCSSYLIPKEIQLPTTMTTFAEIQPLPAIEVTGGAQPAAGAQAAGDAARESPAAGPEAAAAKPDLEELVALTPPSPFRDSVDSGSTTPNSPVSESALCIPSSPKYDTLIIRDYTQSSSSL

Regarding `Cc1nc(-c2noc(-c3ccc(F)cc3F)n2)cc(-c2cncc(F)c2)c1F` [Compound 49, 3-(5,5′-difluoro-6′-methyl-[3,4′-bipyridin]-2′-yl)-5-(2,4-difluorophenyl)-1,2,4-oxadiazole], the IC50 was found to be 0.624 µM. For the same molecule, the remaining activity at 30 µM (% Glu max at 30 μM) amounted to 3%.

With `Cc1nc(-c2n[nH]c(-c3ccc(F)cn3)n2)cc(-c2cncc(F)c2)c1F` [Compound 96, 3′,5-difluoro-6′-(5-(5-fluoropyridin-2-yl)-1H-1,2,4-triazol-3-yl)-2′-methyl-3,4′-bipyridine], the IC50 amounted to 0.064 µM. The remaining activity at 30 µM (% Glu max at 30 μM) came out at 2%.

`COc1c(-c2cnn(C(F)F)c2)cc(-c2noc(-c3ccc(F)cn3)n2)nc1C` [Compound 12, 3-(4-(1-(difluoromethyl)-1H-pyrazol-4-yl)-5-methoxy-6-methylpyridin-2-yl)-5-(5-fluoropyridin-2-yl)-1,2,4-oxadiazole]: the concentration for half-maximal inhibition (IC50) worked out at 1.11 µM. For the same molecule, under “% Glu max at 30 μM”, the remaining activity at 30 µM turned out to be 2%.

With `Cc1ccncc1-c1cc(-c2noc(-c3cnccn3)n2)nc(C)c1F` [Compound 94, 3-(5′-fluoro-4,6′-dimethyl-[3,4′-bipyridin]-2′-yl)-5-(pyrazin-2-yl)-1,2,4-oxadiazole], the IC50 was > 10 µM. In addition, the remaining activity at 30 µM (% Glu max at 30 μM) was determined as 37%.

Turning to `Cc1nc(-c2nnc(-c3ccc(F)cn3)o2)cc(-c2cncc(F)c2)c1F` [Compound 43, 2-(5,5′-difluoro-6′-methyl-[3,4′-bipyridin]-2′-yl)-5-(5-fluoropyridin-2-yl)-1,3,4-oxadiazole], the remaining activity at 30 µM came out at 2% and the IC50 was 0.179 µM.

As for `Cc1cc(CC2CCOCC2)cc(-c2noc(-c3ccc(F)cn3)n2)n1` [Compound 71, 5-(5-fluoropyridin-2-yl)-3-(6-methyl-4-((tetrahydro-2H-pyran-4-yl)methyl)pyridin-2-yl)-1,2,4-oxadiazole], the IC50 is > 10 µM. In addition, the remaining activity at 30 µM (% Glu max at 30 μM) was determined as 45%.

As for `Cc1ccc(-c2nnc(-c3cc(-c4cncc(F)c4)c(F)c(C)n3)o2)nc1` [Compound 57, 2-(5,5′-difluoro-6′-methyl-[3,4′-bipyridin]-2′-yl)-5-(5-methylpyridin-2-yl)-1,3,4-oxadiazole], the remaining activity at 30 µM came out at 4% and the IC50 is 1.08 µM.

Turning to `Cc1ccncc1-c1cc(-c2noc(-c3ccc(Cl)cn3)n2)nc(C)c1F` [Compound 26, 5-(5-chloropyridin-2-yl)-3-(5′-fluoro-4,6′-dimethyl-[3,4′-bipyridin]-2′-yl)-1,2,4-oxadiazole], the IC50 was 0.575 µM. Besides, the remaining activity at 30 µM (% Glu max at 30 μM) worked out at 2%.

`Cc1cc(-c2cncc(F)c2)cc(-c2noc(-c3ccc(F)cn3)n2)n1` [Compound 55, 3-(5-fluoro-6′-methyl-[3,4′-bipyridin]-2′-yl)-5-(5-fluoropyridin-2-yl)-1,2,4-oxadiazole]: the IC50 was determined as 0.19 µM. For the same molecule, where the note is “% Glu max at 30 μM”, the remaining activity at 30 µM turned out to be 2%.

For `COc1c(-c2cncc(F)c2)cc(-c2nc(-c3ccc(F)cn3)no2)nc1C` [Compound 14, 5-(5-fluoro-5′-methoxy-6′-methyl-[3,4′-bipyridin]-2′-yl)-3-(5-fluoropyridin-2-yl)-1,2,4-oxadiazole], the IC50 turned out to be 0.339 µM. Moreover, under “% Glu max at 30 μM”, the remaining activity at 30 µM stood at 2%.

As for `Cc1ccc(-c2cc(-c3nnc(-c4ccc(F)cn4)o3)nc(C)c2F)c(C)n1` [Compound 111, 2-(5′-fluoro-2,6,6′-trimethyl-[3,4′-bipyridin]-2′-yl)-5-(5-fluoropyridin-2-yl)-1,3,4-oxadiazole], the IC50 was determined as 1.53 µM. The remaining activity at 30 µM (% Glu max at 30 μM) was found to be 2%.

`Cc1ccncc1-c1cc(-c2noc(-c3ccccn3)n2)nc(C)c1F` [Compound 19, 3-(5′-fluoro-4,6′-dimethyl-[3,4′-bipyridin]-2′-yl)-5-(pyridin-2-yl)-1,2,4-oxadiazole]: the IC50 is 0.233 µM. Also, the remaining activity at 30 µM (% Glu max at 30 μM) was 2%.

In the case of `Cc1ccncc1-c1cc(-c2noc(C(F)c3ccccc3)n2)nc(C)c1F` (stereo not drawn) [Compound 89, 5-(fluoro(phenyl)methyl)-3-(5′-fluoro-4,6′-dimethyl-[3,4′-bipyridin]-2′-yl)-1,2,4-oxadiazole], the IC50 was determined as 3.6 µM. In addition, the remaining activity at 30 µM (% Glu max at 30 μM) was 3%.

Take `Cc1nc(-c2noc(C3CCOCC3)n2)cc(-c2cncc(F)c2)c1F` [Compound 37, 3-(5,5′-difluoro-6′-methyl-[3,4′-bipyridin]-2′-yl)-5-(tetrahydro-2H-pyran-4-yl)-1,2,4-oxadiazole]: the IC50 was > 10 µM. For the same molecule, the remaining activity at 30 µM (% Glu max at 30 μM) stood at 54%.

As to `Cc1nc(-c2nnc(-c3ccccn3)o2)cc(-c2cncc(F)c2)c1F` [Compound 79, 2-(5,5′-difluoro-6′-methyl-[3,4′-bipyridin]-2′-yl)-5-(pyridin-2-yl)-1,3,4-oxadiazole], the remaining activity at 30 µM was determined as 2% and the IC50 was found to be 0.673 µM.

On to `COc1cc(C#N)cc(-c2cc(-c3nnc(-c4ccc(F)cn4)o3)nc(C)c2F)c1` [Compound 109, 3-(3-fluoro-6-(5-(5-fluoropyridin-2-yl)-1,3,4-oxadiazol-2-yl)-2-methylpyridin-4-yl)-5-methoxybenzonitrile], for which the IC50 came to 0.066 µM. Moreover, the remaining activity at 30 µM (% Glu max at 30 μM) was 2%.

`Cc1ccncc1-c1cc(-c2noc(-c3cccc(F)c3)n2)nc(C)c1F` [Compound 20, 3-(5′-fluoro-4,6′-dimethyl-[3,4′-bipyridin]-2′-yl)-5-(3-fluorophenyl)-1,2,4-oxadiazole]: the IC50 is 0.049 µM. For the same molecule, the remaining activity at 30 µM (% Glu max at 30 μM) was determined as 2%.

For the molecule `Cc1ccc(-c2nc(-c3cc(-c4cnccc4C)c(F)c(C)n3)no2)nc1` [Compound 64, 3-(5′-fluoro-4,6′-dimethyl-[3,4′-bipyridin]-2′-yl)-5-(5-methylpyridin-2-yl)-1,2,4-oxadiazole], the IC50 was > 10 µM. Moreover, the remaining activity at 30 µM (% Glu max at 30 μM) turned out to be 39%.

Consider `Cc1cccc(-c2nnc(-c3cc(-c4cncc(F)c4)c(F)c(C)n3)o2)n1` [Compound 58, 2-(5,5′-difluoro-6′-methyl-[3,4′-bipyridin]-2′-yl)-5-(6-methylpyridin-2-yl)-1,3,4-oxadiazole], for which the remaining activity at 30 µM worked out at 31% and the IC50 is > 10 µM.

With `COc1c(-c2cncc(F)c2)cc(-c2noc(-c3ccc(F)cn3)n2)nc1C` [Compound 11, 3-(5-fluoro-5′-methoxy-6′-methyl-[3,4′-bipyridin]-2′-yl)-5-(5-fluoropyridin-2-yl)-1,2,4-oxadiazole], the IC50 is 0.452 µM. For the same molecule, where the note is “% Glu max at 30 μM”, the remaining activity at 30 µM worked out at 2%.

In the case of `Cc1nc(-c2noc(-c3ccncc3)n2)cc(-c2cncc(F)c2)c1F` [Compound 51, 3-(5,5′-difluoro-6′-methyl-[3,4′-bipyridin]-2′-yl)-5-(pyridin-4-yl)-1,2,4-oxadiazole], the IC50 was determined as 1.07 µM. Where the note is “% Glu max at 30 μM”, the remaining activity at 30 µM amounted to 12%.

In the case of `CCn1cc(-c2cc(-c3noc(-c4nc(C)cs4)n3)nc(C)c2F)cn1` [Compound 17, 3-(4-(1-ethyl-1H-pyrazol-4-yl)-5-fluoro-6-methylpyridin-2-yl)-5-(4-methylthiazol-2-yl)-1,2,4-oxadiazole], the IC50 is > 10 µM. The remaining activity at 30 µM (% Glu max at 30 μM) worked out at 25%.

On to `Cc1cc(CC2CCOC2)cc(-c2noc(-c3ccc(F)cn3)n2)n1` (stereo not drawn) [Compound 86, 5-(5-fluoropyridin-2-yl)-3-(6-methyl-4-((tetrahydrofuran-3-yl)methyl)pyridin-2-yl)-1,2,4-oxadiazole], for which the IC50 turned out to be 0.766 µM. Further, under “% Glu max at 30 μM”, the remaining activity at 30 µM is 1%.

For `Cc1ccncc1-c1cc(-c2noc(-c3ccc(F)cn3)n2)ncc1F` [Compound 1, 3-(5′-fluoro-4-methyl-[3,4′-bipyridin]-2′-yl)-5-(5-fluoropyridin-2-yl)-1,2,4-oxadiazole], the IC50 came out at 0.192 µM. The remaining activity at 30 µM (% Glu max at 30 μM) amounted to 3%.

Source of the values: patent publication US20250026743A1, “HETEROARYL-LINKED ANALOGS AS MGLU5 NEGATIVE ALLOSTERIC MODULATORS AND METHODS OF MAKING AND USING THE SAME” (Vanderbilt University, priority 2021, published 2025).
